{
  "source": "patent US9090944B2",
  "about": "“Biomarker DACT1 for gastric cancer” (The Chinese University of Hong Kong, priority 2011, dated 2015)",
  "key": {"[1]": {"test_system": "KatoIII", "assay": "Demethylation treatment with 5-Aza, DACT1 expression by semiquantitative RT-PCR", "type": "cell-based, human", "details": "2 μM 5-Aza for 5 days", "protocol": "(§1) Semiquantitative RT-PCR was performed in a total volume of 25 μL reaction containing GeneAmp 1×PCR Buffer II (Applied Biosystems), 2.5 mM MgCl2, 200 μM each of dNTP, 200 nM each of primers, 0.5 U of AmpliTaq Gold DNA polymerase (Applied Biosystems) and 30˜50 ng cDNA. The PCR program started with an initial denaturation at 95° C. for 10 min, followed by 32-35 cycles (94° C. for 30 sec, annealing temperature for 30 sec, and 72° C. for 30 sec) of amplification, with a final extension at 72° C. for 10 min. The PCR bands were visualized under ultraviolet light and photographed. The expression of the target gene was normalized by the expression of house keeping gene β-actin, which served as an internal control. Cells were seeded at a density of […]/100-mm dishes and grew for 24 hr. Cells were then treated with 2 μM 5-aza-2′-deoxycytidine (“5-Aza”) (Sigma-Aldrich) for 5 days. The 5-Aza was replenished every day. The gene expression of DACT1 was evaluated using semiquantitative RT-PCR."}, "[2]": {"test_system": "AGS", "assay": "Demethylation treatment with 5-Aza, DACT1 expression by semiquantitative RT-PCR", "type": "cell-based, human", "details": "2 μM 5-Aza for 5 days", "protocol": "as §1"}},
  "data": [
    {"smiles": "Nc1ncn([C@H]2C[C@H](O)[C@@H](CO)O2)c(=O)n1", "note": "[5-Aza, 5-aza-2′-deoxycytidine]", "values": [
      {"measurement": "DACT1 expression after demethylation treatment", "setting": "[1]", "value": "restored DACT1 expression"},
      {"measurement": "DACT1 expression after demethylation treatment", "setting": "[2]", "value": "restored DACT1 expression"}
    ]}
  ]
}
